One compound from patent US8143226B2, “Tyrosine kinase receptor antagonists and methods of treatment for breast cancer” (The Regents of the University of California, priority 2005, dated 2012) can be followed below.

The target in one experiment is T1, HER2/neu (Rattus norvegicus, UniProt P06494).
T1 construct: expressed in transfected cells; host or cells: MCNeuA mouse mammary carcinoma cells (MMTV/neu transgene), in culture or grown as tumours in neuTg mice
Briefly: HER2/neu phosphorylation in excised MCNeuA tumors (western blot). Format: in vivo, mouse. The note with it: 37.5 mg/kg i.p. three times a week, 16 hours after final dose, vs vehicle. As for the experimental part: Tumors were homogenized in 50 mM HEPES, pH 7.6, 150 mM NaCl, 1 mM PMSF, 2 μM leupeptin, 2 μM Pepstatin A, and 2 mM Na3VO4, and solubilized by the addition of 1% Triton x-100. Soluble lysates were prepared as described for cell culture studies. Tyrosine phosphorylation of IGF-1R was determined by ELISA as described for MCF-7 cells. Phosphorylation of HER2/neu was determined by western blot employing the phospho-specific antibody as in the cell culture studies. The degree of phosphorylation for each receptor was normalized to total receptor protein content in the tumor samples as determined by western blotting with antibodies against the human IGF-1R and the rodent HER2/neu.

Another experiment addresses T2, IGF-IR (Homo sapiens, UniProt P08069).
T2 construct: endogenous in cells; host or cells: SH-SY5Y and SHEP
Briefly: IGF-IR phosphorylation ELISA in neuroblastoma cells. Format: cell-based. The note with it: SHEP and SH-SY5Y cells, 60 μM NDGA 1 h, 1 nM IGF-I 10 min. As to the method:
IGF-1R phlosphorylation ELISA. SH-SY5Y and SHEP cells were grown to 80% confluence in DMEM/10% calf serum, then serum-starved for 4 h. […] Some cultures were then treated with 1 nM IGF-I for 10 min. The medium was removed, cultures rinsed 3× in cold PBS, and lysis buffer (120 mM HEPES, 300 mM NaCl, 2 mM sodium orthovanadate, and 1 mM phenylmethylsufonylfluoride (PMSF)) was added. Cultures were rocked in lysis buffer at 4° C. for 1 h. 96-well plates were coated with αIR-3 antibody in 50 mM NaHCO3, pH 9.0, for 2 h at RT. Plates were rinsed 3× in tris-buffered saline +0.1% Tween (TBST), then blocked with SuperBlock (Pierce, Rockford, Ill.) for 30 min at RT. Each well of the ELISA plate received 30 μg of lysate protein from the cell cultures, followed by 24 h incubation at 4° C. Plates were rinsed 5× with TBST, and HRP-conjugated anti-phosphotyrosine antibody was added (1:2000, diluted in 120 mM HEPES, 300 mM NaCl, 2 mM sodium orthovanadate. and 1 mM PMSF. 1% bovine serum albumin, 1 mg/ml bacitracin, and 0.5% Tween-20) for 2 h at RT. Plates were again rinsed 5× in TBST, and TMB (Pierce) was added until blue color was sufficiently developed. […] Each lysate was run in triplicate, and the experiment was repeated 3 times.
Background: ELISA stands for enzyme-linked immunosorbent assay.

Another experiment deals with SH-SY5Y cells. Briefly: Propidium iodide flow cytometry of apoptotic (sub-G0) SH-SY5Y cells. To be noted: SH-SY5Y cells in serum, 30-120 μM, 24 h. Format: cell-based, human. As to the method:
Propidium iodide staining of apoptotic cells. SH-SY5Y cells were cultured in DMEM with 10% calf serum. […] The supernatant was collected to save detached cells. Attached cells were removed from the plate via trypsinization, and pelleted by centrifugation in combination with the cells in the supernatant. The cell pellet was fixed by drop-wise addition of cold 70% ethanol while vortexing, gently, and stored at 4° C. The pellet was washed twice and resuspended in PBS and stained with 1 μg/ml propidium iodide. Propidium iodide fluorescence was measured in 30,000 cells per sample using a Becton-Dickinson (Franklin Lakes, N.J.) Facscalibur flow cytometer. The percentage of cells in each stage of the cell cycle, as well as the percentage of cells that were apoptotic (sub-G0) was determined by analyzing the data with ModFit software. The experiment was repeated three times.
For orientation: A flow cytometer gives signals particle by particle.

A further experiment deals with SH-SY5Y and SHEP cells. Briefly: IGF-I stimulated motility of neuroblastoma cells on gold particle-coated coverslips. Format: cell-based, human. To be noted: 30 μM NDGA, 1 nM IGF-I, 6 h. As for the experimental part: Measurement of cell motility. Neuroblastoma cells were plated on gold particle-coated coverslips (prepared as described in (30)) in serum-free media at a density of 25,000 cells per coverslip. The cells were incubated for 2 h to allow adhesion to the coverslip. […] 1 nM IGF-I was then added to some wells. Incubation continued for 6 h, followed by fixation with 3.5% glutaraldehyde. Coverslips were mounted on glass slides, then viewed on a Lietz Orthoplan inverted microscope attached to a Sony videoprocessor. Digital images of the tracks etched into the gold by the cells from 3 separately treated coverslips per condition were collected at 200× magnification using Adobe Photoshop software. For each condition, the areas of 120 tracks made by individual cells were measured with NIH Image 1.61 software.

For the next experiment, the system named is AKT/PKB. As to the kind of experiment: Akt/PKB phosphorylation in MCF-7/HER2-18 cells (western blot). Format: cell-based, human. As for the experimental part:
[…]. Enzyme linked immunosorbent assays (ELISA) for phosphorylated IGF-1R and HER2 IGF-1R phosphorylation was determined by ELISA as described previously for the insulin receptor [Youngren JF, Goldfine ID and Pratley RE: Decreased muscle insulin receptor kinase con-elates with insulin resistance in normoglycemic Pima Indians. Am J Physiol 273: E276-83, 1997]. Briefly, 10 μg lysate protein were added to triplicate wells in a 96-well plate coated with monoclonal antibody to the IGF-IR (IR3; 2 μg/ml), and incubated for 18 hours at 4° C. Plates were washed five times and then HRP-conjugated anti-phosphotyrosine antibody (0.3 μg/ml), diluted in Solution B (50 mM HEPES, pH 7.6, 150 mM NaCl, 0.05% Tween-20, 1 mM PMSF, 2 mM vanadate and 1 mg/ml bacitracin), was added for two hours at 22° C. Plates were washed five times prior to color development with TMB substrate, which was terminated with 1.0 M H3PO4. Values for receptor phosphorylation were determined by measuring absorbance at 450 nm.
Total protein extracts (10 μg), prepared as described above from cells cultured in the presence or absence of IGF-1 and/or RTK inhibitors, were subjeccted to SDS-PAGE and subsequently transferred to nitrocellulose membranes. […] Membranes were washed again and bound antibodies detected by enhanced chemiluminescence (Pierce). […]
(In general: Immunoblotting shows a protein as a band on a membrane.)

Structures are written as SMILES.

T2 sequence (P08069 31-1367): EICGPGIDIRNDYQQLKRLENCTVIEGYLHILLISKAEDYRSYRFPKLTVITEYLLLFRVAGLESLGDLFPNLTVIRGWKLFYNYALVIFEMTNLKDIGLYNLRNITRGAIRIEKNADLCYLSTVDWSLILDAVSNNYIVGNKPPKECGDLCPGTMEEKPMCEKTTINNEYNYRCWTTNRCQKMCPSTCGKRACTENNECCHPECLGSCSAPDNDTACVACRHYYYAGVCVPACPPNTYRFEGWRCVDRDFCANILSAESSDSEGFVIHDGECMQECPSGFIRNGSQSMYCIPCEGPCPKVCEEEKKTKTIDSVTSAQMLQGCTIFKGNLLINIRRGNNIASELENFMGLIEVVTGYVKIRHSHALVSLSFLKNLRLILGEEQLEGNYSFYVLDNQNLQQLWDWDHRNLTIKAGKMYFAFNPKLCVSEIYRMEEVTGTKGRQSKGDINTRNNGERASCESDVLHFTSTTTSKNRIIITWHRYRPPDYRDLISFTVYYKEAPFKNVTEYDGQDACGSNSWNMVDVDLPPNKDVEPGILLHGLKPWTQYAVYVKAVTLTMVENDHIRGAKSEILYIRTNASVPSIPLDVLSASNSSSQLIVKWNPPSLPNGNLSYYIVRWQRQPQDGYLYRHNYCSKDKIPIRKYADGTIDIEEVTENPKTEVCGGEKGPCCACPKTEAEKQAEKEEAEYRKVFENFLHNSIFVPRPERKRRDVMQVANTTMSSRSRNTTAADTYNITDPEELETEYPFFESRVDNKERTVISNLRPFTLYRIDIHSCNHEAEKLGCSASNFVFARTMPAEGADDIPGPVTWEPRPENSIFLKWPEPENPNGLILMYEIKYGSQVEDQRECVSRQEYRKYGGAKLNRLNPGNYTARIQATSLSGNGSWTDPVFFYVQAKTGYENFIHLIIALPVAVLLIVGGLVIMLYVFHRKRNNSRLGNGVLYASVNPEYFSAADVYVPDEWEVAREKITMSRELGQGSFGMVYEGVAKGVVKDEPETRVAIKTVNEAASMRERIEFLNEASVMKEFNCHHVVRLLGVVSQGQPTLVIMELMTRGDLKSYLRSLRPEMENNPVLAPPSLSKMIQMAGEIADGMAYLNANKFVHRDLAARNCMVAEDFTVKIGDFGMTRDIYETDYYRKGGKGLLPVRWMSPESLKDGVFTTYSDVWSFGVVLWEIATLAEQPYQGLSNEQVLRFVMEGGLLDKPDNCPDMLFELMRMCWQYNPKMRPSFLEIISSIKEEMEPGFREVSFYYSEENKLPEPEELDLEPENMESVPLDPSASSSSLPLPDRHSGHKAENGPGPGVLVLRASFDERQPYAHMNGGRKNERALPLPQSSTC
T1 sequence (P06494 23-1257): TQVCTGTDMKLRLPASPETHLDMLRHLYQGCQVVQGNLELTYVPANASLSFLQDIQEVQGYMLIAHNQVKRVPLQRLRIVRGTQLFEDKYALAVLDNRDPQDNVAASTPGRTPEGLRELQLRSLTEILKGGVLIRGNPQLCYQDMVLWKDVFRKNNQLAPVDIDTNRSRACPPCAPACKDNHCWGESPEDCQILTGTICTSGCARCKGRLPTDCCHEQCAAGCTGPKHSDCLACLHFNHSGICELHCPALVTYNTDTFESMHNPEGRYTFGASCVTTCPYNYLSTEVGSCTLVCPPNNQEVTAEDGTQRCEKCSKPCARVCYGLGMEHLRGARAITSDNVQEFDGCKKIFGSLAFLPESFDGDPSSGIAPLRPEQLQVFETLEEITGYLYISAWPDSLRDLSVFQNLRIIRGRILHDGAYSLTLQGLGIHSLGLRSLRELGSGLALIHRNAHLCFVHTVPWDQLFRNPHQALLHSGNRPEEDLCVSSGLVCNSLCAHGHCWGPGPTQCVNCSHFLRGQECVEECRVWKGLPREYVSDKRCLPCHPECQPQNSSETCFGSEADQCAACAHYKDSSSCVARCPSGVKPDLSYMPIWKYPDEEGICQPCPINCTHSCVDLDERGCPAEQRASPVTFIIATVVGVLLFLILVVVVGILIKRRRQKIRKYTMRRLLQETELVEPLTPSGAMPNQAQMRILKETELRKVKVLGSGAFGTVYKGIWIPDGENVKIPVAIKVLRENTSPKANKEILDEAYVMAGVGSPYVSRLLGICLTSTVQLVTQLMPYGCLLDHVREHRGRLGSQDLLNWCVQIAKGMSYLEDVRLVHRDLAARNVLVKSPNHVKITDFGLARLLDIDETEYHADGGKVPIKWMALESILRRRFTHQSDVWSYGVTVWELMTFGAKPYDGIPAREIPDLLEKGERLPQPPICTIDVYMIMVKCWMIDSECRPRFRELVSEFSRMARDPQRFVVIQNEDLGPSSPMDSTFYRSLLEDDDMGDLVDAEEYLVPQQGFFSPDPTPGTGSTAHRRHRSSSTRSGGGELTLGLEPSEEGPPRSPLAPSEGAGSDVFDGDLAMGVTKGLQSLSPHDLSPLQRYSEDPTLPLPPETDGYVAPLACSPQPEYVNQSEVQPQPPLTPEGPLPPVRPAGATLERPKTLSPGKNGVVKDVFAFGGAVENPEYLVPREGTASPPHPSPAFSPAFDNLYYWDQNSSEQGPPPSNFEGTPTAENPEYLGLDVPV

Take `CC(Cc1ccc(O)c(O)c1)C(C)Cc1ccc(O)c(O)c1` (stereo not drawn) [NDGA, nordihydroguaiaretic acid]: the “HER2/neu receptor autophosphorylation in tumors” value on HER2/neu is “reduced”. Besides, the “IGF-I stimulated IGF-IR tyrosine phosphorylation” value on IGF-IR is “inhibited”. The “percentage of sub-G0 cells” value in the experiment on SH-SY5Y cells is “dramatic, dose-dependent increase”. Moreover, in the experiment with SH-SY5Y and SHEP cells, the “IGF-I induced increase in motility” value is listed as “strongly suppressed”. In the experiment on AKT/PKB (3 nM IGF-1), the “IGF-1 stimulated phosphorylation of AKT/PKB” value was “inhibited”. In the experiment on AKT/PKB (absence of IGF-1), the “level of phospho-AKT/PKB” value is on record as “decreased”.
